Measured values reported in patent US20250352615A1, “COMPOSITIONS AND METHODS FOR THE MODULATION OF PIEZO1 AND TRPV4” (Duke University, priority 2021, published 2025).

Key:
[1] = tested on: pancreatic acini; assay: Trypsinogen activation in pancreatic acini (BZiPAR); type: cell-based, mouse
Protocol: To visualize Piezo1-induced trypsinogen activation, acini were loaded with active trypsin enzyme substrate BZiPAR (10 μM). Na-HEPES buffer with 2 mM Ca^2+ was used during imaging. A Zeiss Axio observer Z1 with a high-sensitivity EMCCD camera with a ×40/0.75 EC-Plan-NeoFluar DIC objective was used to capture the Z-stack images with stack thickness of 3 μm at an interval of 12 seconds. The BZiPAR fluorescent wavelength Ex/Em was 498/521 nm. BZiPAR was excited at 470-510 nm and emission collected at 495-550 nm. The captured images were analyzed with MetaMorph software (Molecular Devices).

[2] = tested on: PLA2; assay: PLA2 activity in living pancreatic acini (Bis-BODIPY FL C11-PC); type: cell-based, mouse; details: Yoda1 25 μM
Protocol: The fluorogenic PLA2 substrate (Bis-BODIPY FL C11-PC) (Thermo Fisher Scientific; B7701) was used to monitor PLA2 activity in living cells. The pancreatic acini were incubated with Bis-BODIPY FL C11-PC in HBSS buffer with 2 mM Ca^2+ for 30 minutes. HBSS buffer with 2 mM Ca^2+ was used during imaging. A Zeiss Axio observer Z1 with a high-sensitivity EMCCD camera with a ×40/0.75 EC-Plan-NeoFluar DIC objective was used to capture the Z-stack images with stack thickness of 4 μm at an interval of 10 seconds with 480 nm excitation and 525 nm emission filter. The captured images were analyzed with MetaMorph software (Molecular Devices).

[3] = biological target: T1, TRPV4 (Mus musculus, UniProt Q9EPK8); assay: Calcium imaging of TRPV4-mediated [Ca2+]i in mouse PSCs; type: cell-based; details: Yoda1 25 μM
T1 construct: endogenous in cells; host or cells: freshly isolated mouse pancreatic acini (C57BL/6J WT)
T1 sequence (Q9EPK8 whole entry): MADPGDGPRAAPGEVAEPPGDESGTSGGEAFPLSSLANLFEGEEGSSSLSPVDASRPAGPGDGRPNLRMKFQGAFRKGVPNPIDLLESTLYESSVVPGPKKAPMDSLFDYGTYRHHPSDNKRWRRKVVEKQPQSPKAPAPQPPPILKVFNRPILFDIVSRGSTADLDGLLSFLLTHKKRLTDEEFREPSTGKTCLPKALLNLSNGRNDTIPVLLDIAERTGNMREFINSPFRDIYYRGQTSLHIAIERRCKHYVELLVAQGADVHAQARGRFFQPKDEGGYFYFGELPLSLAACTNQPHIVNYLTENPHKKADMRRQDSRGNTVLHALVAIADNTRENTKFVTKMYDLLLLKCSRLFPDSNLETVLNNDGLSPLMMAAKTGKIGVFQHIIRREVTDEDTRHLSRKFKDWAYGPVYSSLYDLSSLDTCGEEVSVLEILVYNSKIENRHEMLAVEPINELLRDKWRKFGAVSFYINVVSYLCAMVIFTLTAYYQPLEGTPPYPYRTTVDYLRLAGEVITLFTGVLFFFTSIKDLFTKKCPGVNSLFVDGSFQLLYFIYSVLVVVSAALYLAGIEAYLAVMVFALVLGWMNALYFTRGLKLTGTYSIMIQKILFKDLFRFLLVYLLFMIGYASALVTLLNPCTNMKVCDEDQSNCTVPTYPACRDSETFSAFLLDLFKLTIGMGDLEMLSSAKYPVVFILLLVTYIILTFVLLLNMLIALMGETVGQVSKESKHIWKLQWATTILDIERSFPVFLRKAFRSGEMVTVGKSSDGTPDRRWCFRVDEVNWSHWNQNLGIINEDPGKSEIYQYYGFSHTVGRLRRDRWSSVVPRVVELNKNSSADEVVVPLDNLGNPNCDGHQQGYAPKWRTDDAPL
Protocol: Mouse and human PSCs were isolated using collagenase digestion. Modified Krebs Henseleit Buffer (KHB) solution (100 mL) was prepared as previously described by Romac et al., Nat. Commun. 9(1):1715 (2018). Pancreatic tissue was digested with 2 mg of collagenase NB 8 (SERVA, catalog 17456) dissolved in 10 mL of modified KHB solution containing 1 mg soybean trypsin inhibitor (SBTI 1-S; Millipore Sigma, catalog T9003) and 20 mg BSA (Thermo Fisher Scientific; BP1600-100). Digestion solution (5 mL) was used to inflate the pancreas. Pancreas with 5 mL of digestion solution was incubated in a shaking water bath for 10 minutes at 37° C. The solution was then discarded. The pancreas tissue was cut into small pieces and digested with fresh 5 mL digestion buffer. Tissue was incubated in a shaking water bath for 40 minutes at 37° C. The cells were then separated from tissue by pipetting up-down with a 10 mL pipette and passed sequentially through a 70 μm and a 40 μm cell strainer. The filtrate was centrifuged at 150×g for 3 minutes at room temperature. The cells were washed with 10 mL Leibovitz's media (Thermo Fisher Scientific, catalog 11415-064), passed through a 20 μm filter, and centrifuged at 80×g for 3 minutes at room temperature. The supernate was removed, and isolated stellate cells were plated on a thin-layered Matrigel-coated glass bottom culture plate (MatTek, P35G-0-14-C). Before plating the cells, Matrigel solution (Corning, catalog 354234) at a ratio of 1.5:100 DMEM/F12 (Thermo Fisher Scientific, catalog 11330-032) was poured onto the culture plate and incubated for 2 hr at 37° C. to form a thin layer of Matrigel coating. Matrigel mixture was removed, and the plate was washed with PBS before cells were plated. Cell culture media, DMEM/F12 with 5% FBS was used for mouse stellate cells. Fresh, human pancreatic tissue was digested with collagenase as described above with modifications. […] The cell viability following Yoda1 treatment was analyzed using the Live/Dead cell imaging kit (Thermo Fisher Scientific, catalog R37601). […]

[4] = tested on: human PSCs; assay: Human PSC activation and fibrogenic response (fat droplets, cell shape, ECM mRNA and immunostaining); type: cell-based
Protocol: Mouse and human PSCs were isolated using collagenase digestion. Modified Krebs Henseleit Buffer (KHB) solution (100 mL) was prepared as previously described by Romac et al., Nat. Commun. 9(1):1715 (2018). Pancreatic tissue was digested with 2 mg of collagenase NB 8 (SERVA, catalog 17456) dissolved in 10 mL of modified KHB solution containing 1 mg soybean trypsin inhibitor (SBTI 1-S; Millipore Sigma, catalog T9003) and 20 mg BSA (Thermo Fisher Scientific; BP1600-100). Digestion solution (5 mL) was used to inflate the pancreas. Pancreas with 5 mL of digestion solution was incubated in a shaking water bath for 10 minutes at 37° C. The solution was then discarded. The pancreas tissue was cut into small pieces and digested with fresh 5 mL digestion buffer. Tissue was incubated in a shaking water bath for 40 minutes at 37° C. The cells were then separated from tissue by pipetting up-down with a 10 mL pipette and passed sequentially through a 70 μm and a 40 μm cell strainer. The filtrate was centrifuged at 150×g for 3 minutes at room temperature. The cells were washed with 10 mL Leibovitz's media (Thermo Fisher Scientific, catalog 11415-064), passed through a 20 μm filter, and centrifuged at 80×g for 3 minutes at room temperature. The supernate was removed, and isolated stellate cells were plated on a thin-layered Matrigel-coated glass bottom culture plate (MatTek, P35G-0-14-C). Before plating the cells, Matrigel solution (Corning, catalog 354234) at a ratio of 1.5:100 DMEM/F12 (Thermo Fisher Scientific, catalog 11330-032) was poured onto the culture plate and incubated for 2 hr at 37° C. to form a thin layer of Matrigel coating. Matrigel mixture was removed, and the plate was washed with PBS before cells were plated. Cell culture media, DMEM/F12 with 5% FBS was used for mouse stellate cells. Fresh, human pancreatic tissue was digested with collagenase as described above with modifications. Collagenase (2.5 mg) in 10 mL of modified KHB solution was used for digestion. The digested tissues were filtered through a 100 μm cell strainer. The cells were cultured with DMEM/F12 with 10% FBS in a Matrigel-coated plate. After 24 hr, the cell media was replaced with fresh media to remove unattached and dead cells. After 2 days, cells were immunostained for GFAP and used for experiments. Perinuclear fat droplets were stained with BODIPY 493/503 (4,4-Difluoro-1,3,5,7,8-Pentamethyl-4-Bora-3a,4a-Diaza-s-Indacene; Invitrogen, catalog D3922) to confirm stellate cell quiescence. The cell viability following Yoda1 treatment was analyzed using the Live/Dead cell imaging kit (Thermo Fisher Scientific, catalog R37601). RNAs were isolated using the RiboPure Kit (Invitrogen, catalog AM1924) according to manufacturer's instructions.
Fluid shear stress and mechanical pushing applied to stellate cells were achieved as previously described by Wang et al., J. Clin. Invest. 126(12): 4527-4536 (2016). Parallel-plate fluid flow chambers (μ-Slide I 0.4 Luer, or μ-Slide I 0.2 Luer from Ibidi) were used for fluid shear stress experiments. The fluid shear stress (T) was calculated using the formula: τ=η×[…] φ for μ-Slide I 0.4 Luer and τ=η×330.4 φ for μ-Slide I 0.2 Luer, where r represents viscosity of the medium and φ represents flow rate (according to the manufacturer's instructions, Ibidi). Mechanical pushing was achieved by applying a blunt borosilicate glass pipette once to the cell membrane with a deflection of 2-3 μm for 1 second using a micromanipulator (World Precision Instruments).
Mouse and human PSCs were washed with PBS (pH 7.4) and fixed with 4% paraformaldehyde for 10 minutes at room temperature. The fixed cells were treated with 0.1% Triton X-100. […]

## Clc1cccc(Cl)c1CSc1nnc(-c2cnccn2)s1 [Yoda1]
[1]; Yoda1
  trypsin activation in acinar cells from Piezo1aci-KO mice: did not respond to Yoda1
[1]; Yoda1 50 μM or CCK 10 nM
  trypsin activation (BZiPAR fluorescence): activated trypsin in pancreatic acini over time
[1]; Yoda1 50 μM, CCK 10 nM
  time to trypsin activation after application: ≤ 10 min
[2]
  PLA2 activation in acini from Piezo1aci-KO mice: did not stimulate PLA2 activation
  onset of PLA2 activation after application: ≤ 30 s
  time to plateau of PLA2 activity: 4 min
[2]; WT acini
  intensity of fluorogenic PLA2 substrate (PLA2 activity): markedly increased the intensity of the fluorogenic PLA2 substrate
[3]
  [Ca2+]i response in TRPV4-null PSCs: caused only transient calcium elevations in TRPV4-null PSCs
[4]; Yoda1 25 μM, 24 hr
  Fibronectin, collagen type I, and Piezo1 mRNA levels: significantly elevated
  TGF-β1 gene expression: stimulation of profibrotic TGF-β1
  mean cell area and maximum diameter (mean Feret's diameter-max): significant increase in mean cell area and maximum diameter
[4]; Yoda1 25 μM, within 24 hours
  PSCs that had lost their perinuclear fat droplets: ~80%
[4]; after 4 days of Yoda1 25 μM
  fibronectin and collagen type I immunostaining: abundant
